In US20240108006A1, “PESTICIDALLY ACTIVE HETEROAROMATIC COMPOUNDS” (SYNGENTA CROP PROTECTION AG, priority 2021, published 2024):

Tested on: Chilo suppressalis
Experiment: Example B1: Chilo suppressalis (striped rice stemborer), artificial diet, L2 larvae
Type: in vivo
Settings: 144 h, application rate of 200 ppm, 6 days after infestation, read-out: control in at least one of the three categories (mortality, anti-feedant effect, or growth inhibition)
Procedure: Example B1: Chilo suppressalis (Striped Rice Stemborer)
24-well microtiter plates with artificial diet were treated with aqueous test solutions prepared from 10,000 ppm DMSO stock solutions by pipetting. After drying, the plates were infested with L2 larvae (6-8 per well). The samples were assessed for mortality, anti-feeding effect, and growth inhibition in comparison to untreated samples 6 days after infestation. Control of Chilo suppressalis by a test sample is given when at least one of the categories mortality, anti-feedant effect, and growth inhibition is higher than the untreated sample.

| SMILES | percent control (mortality, anti-feedant effect or growth inhibition) at 200 ppm [%] |
| --- | --- |
| Cc1cc(Cl)ncc1NC(=O)N[C@@H](C)c1ncnn1-c1ncccn1 [Example P318, 1-(6-chloro-4-methyl-3-pyridyl)-3-[(1S)-1-(2-pyrimidin-2-yl-1,2,4-triazol-3-yl)ethyl]urea] | ≥ 80 |
| C[C@H](NC(=O)Nc1cc(Cl)c(F)cc1F)c1ncnn1-c1ncccn1 [Example P379, 1-(5-chloro-2,4-difluoro-phenyl)-3-[(1S)-1-(2-pyrimidin-2-yl-1,2,4-triazol-3-yl)ethyl]urea] | ≥ 80 |
| Cc1cc(NC(=O)N[C@@H](C)c2ncnn2-c2ncccn2)c(C)cc1F [Example P295, 1-(4-fluoro-2,5-dimethyl-phenyl)-3-[(1S)-1-(2-pyrimidin-2-yl-1,2,4-triazol-3-yl)ethyl]urea] | ≥ 80 |
| Cc1cc(Br)ncc1NC(=O)N[C@@H](C)c1ncnn1-c1ncccn1 [Example P342, 1-(6-bromo-4-methyl-3-pyridyl)-3-[(1S)-1-(2-pyrimidin-2-yl-1,2,4-triazol-3-yl)ethyl]urea] | ≥ 80 |
| COc1cc(NC(=O)N[C@@H](C)c2ncnn2-c2ncccn2)c(Br)cc1Cl [Example P294, 1-(2-bromo-4-chloro-5-methoxy-phenyl)-3-[(1S)-1-(2-pyrimidin-2-yl-1,2,4-triazol-3-yl)ethyl]urea] | ≥ 80 |
| C[C@H](NC(=O)Nc1cc(Br)c(F)cc1I)c1ncnn1-c1ncccn1 [Example P371, 1-(5-bromo-4-fluoro-2-iodo-phenyl)-3-[(1S)-1-(2-pyrimidin-2-yl-1,2,4-triazol-3-yl)ethyl]urea] | ≥ 80 |
| Cc1cc(F)c(C#N)cc1NC(=O)N[C@@H](C)c1ncnn1-c1ncccn1 [Example P296, 1-(5-cyano-4-fluoro-2-methyl-phenyl)-3-[(1S)-1-(2-pyrimidin-2-yl-1,2,4-triazol-3-yl)ethyl]urea] | ≥ 80 |
| C[C@H](NC(=O)Nc1cc(C(F)(F)F)c(Cl)cc1F)c1ncnn1-c1ncccn1 [Example P393, 1-[4-chloro-2-fluoro-5-(trifluoromethyl)phenyl]-3-[(1S)-1-(2-pyrimidin-2-yl-1,2,4-triazol-3-yl)ethyl]urea] | ≥ 80 |
| Cc1cc(C)c(N2CCCC2=O)cc1NC(=O)N[C@@H](C)c1ncnn1-c1ncccn1 [Example P212, 1-[2,4-dimethyl-5-(2-oxopyrrolidin-1-yl)phenyl]-3-[(1S)-1-(2-pyrimidin-2-yl-1,2,4-triazol-3-yl)ethyl]urea] | ≥ 80 |
| Cc1cc(Br)ccc1NC(=O)N[C@@H](C)c1ncnn1-c1ncccn1 [Example P106, 1-(4-bromo-2-methyl-phenyl)-3-[(1S)-1-(2-pyrimidin-2-yl-1,2,4-triazol-3-yl)ethyl]urea] | ≥ 80 |
| C[C@H](NC(=O)Nc1cc2c(cc1Br)CCC2)c1ncnn1-c1ncccn1 [Example P303, 1-(6-bromoindan-5-yl)-3-[(1S)-1-(2-pyrimidin-2-yl-1,2,4-triazol-3-yl)ethyl]urea] | ≥ 80 |
| Cc1cc(F)c(C(F)(F)F)cc1NC(=O)N[C@@H](C)c1ncnn1-c1ncccn1 [Example P297, 1-[4-fluoro-2-methyl-5-(trifluoromethyl)phenyl]-3-[(1S)-1-(2-pyrimidin-2-yl-1,2,4-triazol-3-yl)ethyl]urea] | ≥ 80 |
| Cc1cc([N+](=O)[O-])c(C)cc1NC(=O)N[C@@H](C)c1ncnn1-c1ncccn1 [Example P323, 1-(2,5-dimethyl-4-nitro-phenyl)-3-[(1S)-1-(2-pyrimidin-2-yl-1,2,4-triazol-3-yl)ethyl]urea] | ≥ 80 |
| COc1cc(C)c(NC(=O)N[C@@H](C)c2ncnn2-c2ncccn2)cc1F [Example P378, 1-(5-fluoro-4-methoxy-2-methyl-phenyl)-3-[(1S)-1-(2-pyrimidin-2-yl-1,2,4-triazol-3-yl)ethyl]urea] | ≥ 80 |
| C[C@H](NC(=O)Nc1ccc(F)cc1C(F)(F)F)c1ncnn1-c1ncccn1 [Example P116, 1-[4-fluoro-2-(trifluoromethyl)phenyl]-3-[(1S)-1-(2-pyrimidin-2-yl-1,2,4-triazol-3-yl)ethyl]urea] | ≥ 80 |
| C[C@@H](c1ncnn1-c1ncccn1)N1CCCN(c2cc(OC(F)(F)C(F)F)c(Cl)cc2Cl)C1=O [Example P311, 1-[2,4-dichloro-5-(1,1,2,2-tetrafluoroethoxy)phenyl]-3-[(1S)-1-(2-pyrimidin-2-yl-1,2,4-triazol-3-yl)ethyl]hexahydropyrimidin-2-one] | ≥ 80 |
| Cc1cc(NC(=O)N[C@@H](C)c2ncnn2-c2ncccn2)c(Cl)cc1F [Example P385, 1-(2-chloro-4-fluoro-5-methyl-phenyl)-3-[(1S)-1-(2-pyrimidin-2-yl-1,2,4-triazol-3-yl)ethyl]urea] | ≥ 80 |
| COc1cc(S(C)(=O)=O)c(NC(=O)N[C@@H](C)c2ncnn2-c2ncccn2)cc1Cl [Example P192, 1-(5-chloro-4-methoxy-2-methylsulfonyl-phenyl)-3-[(1S)-1-(2-pyrimidin-2-yl-1,2,4-triazol-3-yl)ethyl]urea] | ≥ 80 |
| C[C@H](NC(=O)Nc1cc2c(cc1Br)CCC(=O)N2)c1ncnn1-c1ncccn1 [Example P322, 1-(6-bromo-2-oxo-3,4-dihydro-1H-quinolin-7-yl)-3-[(1S)-1-(2-pyrimidin-2-yl-1,2,4-triazol-3-yl)ethyl]urea] | ≥ 80 |
| C[C@H](NC(=O)Nc1ccc(F)cc1C(C)(F)F)c1ncnn1-c1ncccn1 [Example P45, 1-[2-(1,1-difluoroethyl)-4-fluoro-phenyl]-3-[(1S)-1-(2-pyrimidin-2-yl-1,2,4-triazol-3-yl)ethyl]urea] | ≥ 80 |
| C[C@H](NC(=O)Nc1cc(F)c(Br)cc1F)c1ncnn1-c1ncccn1 [Example P339, 1-(4-bromo-2,5-difluoro-phenyl)-3-[(1S)-1-(2-pyrimidin-2-yl-1,2,4-triazol-3-yl)ethyl]urea] | ≥ 80 |
| Cc1cc2c(cc1NC(=O)N[C@@H](C)c1ncnn1-c1ncccn1)OCO2 [Example P344, 1-(6-methyl-1,3-benzodioxol-5-yl)-3-[(1S)-1-(2-pyrimidin-2-yl-1,2,4-triazol-3-yl)ethyl]urea] | ≥ 80 |

Tested on: Plutella xylostella
Experiment: Example B8: Plutella xylostella (diamond back moth), artificial diet 24-well, eggs
Type: in vivo
Settings: 192 h, application rate of 200 ppm, 8 days after infestation, read-out: effect in at least one of the two categories (mortality or growth inhibition)
Procedure: Example B8: Plutella xylostella (Diamond Back Moth)
24-well microtiter plates with artificial diet were treated with aqueous test solutions prepared from 10,000 ppm DMSO stock solutions by pipetting. After drying, Plutella eggs were pipetted through a plastic stencil onto a gel blotting paper and the plate was closed with it. The samples were assessed for mortality and growth inhibition in comparison to untreated samples 8 days after infestation.
The following compounds gave an effect of at least 80% in at least one of the two categories (mortality or growth inhibition) at an application rate of 200 ppm: […]

| SMILES | percent effect (mortality or growth inhibition) at 200 ppm [%] |
| --- | --- |
| COC(=O)c1cc(NC(=O)N[C@@H](C)c2ncnn2-c2ncccn2)c(F)cc1Br [Example P228, methyl 2-bromo-4-fluoro-5-[[(1S)-1-(2-pyrimidin-2-yl-1,2,4-triazol-3-yl)ethyl]carbamoylamino]benzoate] | ≥ 80 |
| CC(=O)c1cc(NC(=O)N[C@@H](C)c2ncnn2-c2ncccn2)c(Cl)cc1Cl [Example P229, 1-(5-acetyl-2,4-dichloro-phenyl)-3-[(1S)-1-(2-pyrimidin-2-yl-1,2,4-triazol-3-yl)ethyl]urea] | ≥ 80 |
| Cc1cc(NC(=O)N[C@@H](C)c2ncnn2-c2ncccn2)c(Cl)cc1Br [Example P290, 1-(4-bromo-2-chloro-5-methyl-phenyl)-3-[(1S)-1-(2-pyrimidin-2-yl-1,2,4-triazol-3-yl)ethyl]urea] | ≥ 80 |
| CC(NC(=O)N1CCc2cc(C(F)(F)F)ncc21)c1ncnn1-c1ccc(C#N)cn1 (stereo not shown) [Example P171, N-[1-[2-(5-cyano-2-pyridyl)-1,2,4-triazol-3-yl]ethyl]-5-(trifluoromethyl)-2,3-dihydropyrrolo[2,3-c]pyridine-1-carboxamide] | ≥ 80 |
| CC(NC(=O)Nc1ccc(Cl)c(C(F)(F)F)c1)c1nccnc1-n1nccn1 (stereo not shown) [Example P259, 1-[4-chloro-3-(trifluoromethyl)phenyl]-3-[1-[3-(triazol-2-yl)pyrazin-2-yl]ethyl]urea] | ≥ 80 |
| C[C@H](NC(=O)Nc1cc(Cl)ccc1C(F)(F)F)c1ncnn1-c1ncccn1 [Example P12, 1-[5-chloro-2-(trifluoromethyl)phenyl]-3-[(1S)-1-(2-pyrimidin-2-yl-1,2,4-triazol-3-yl)ethyl]urea] | ≥ 80 |
| C[C@H](NC(=O)Nc1nc(C2CC2)cc(C2CC2)n1)c1ncnn1-c1ncccn1 [Example P33, 1-(4,6-dicyclopropylpyrimidin-2-yl)-3-[(1S)-1-(2-pyrimidin-2-yl-1,2,4-triazol-3-yl)ethyl]urea] | ≥ 80 |
| COc1cc(Br)c(Cl)cc1NC(=O)N[C@@H](C)c1ncnn1-c1ncccn1 [Example P368, 1-(4-bromo-5-chloro-2-methoxy-phenyl)-3-[(1S)-1-(2-pyrimidin-2-yl-1,2,4-triazol-3-yl)ethyl]urea] | ≥ 80 |
| C[C@H](NC(=O)Nc1cc(Cl)c(OC(F)(F)C(F)C(F)(F)F)cc1Cl)c1ncnn1-c1ncccn1 (stereo partly drawn) [Example P211, 1-[2,5-dichloro-4-(1,1,2,3,3,3-hexafluoropropoxy)phenyl]-3-[(1S)-1-(2-pyrimidin-2-yl-1,2,4-triazol-3-yl)ethyl]urea] | ≥ 80 |
